Reference: patent US11332475B2, “Optically active pyranochromenyl phenol derivative and pharmaceutical composition comprising same” (GLACEUM, INC., priority 2016, dated 2022)

Tests used:
Assay type in all cases: in vivo
[1] = tested on: diet induced obesity (DIO) mouse; assay: Anti-obesity effect (body weight change) in diet induced obesity (DIO) mouse; settings: for Anti-obesity effect (%): % body weight change by Equation 1; for Anti-obesity activity compared with other isomer/racemate: result in words
Protocol: Specifically, a 5- to 6-week-old female C57BL/6J mouse (Jackson Lab., USA) were purchased and fed with only high-fat fodder for at least 11 weeks to produce a diet induced obesity (DIO) mouse. Samples were exactly taken from a control and the racemic compound, the R-enantiomer (Compound 2a) and the S-enantiomer (Compound 2b) in Example 1 according to the administration dose (0, 20, and 50 mg/kg) and put into Falcon tubes, 3 ml of a 0.5% aqueous methyl cellulose solution was added thereto, and the resulting mixture was gently mixed by means of a vortex mixer. Thereafter, the mixture was homogenized by using a homogenizer (30,000 rpm, Ultra-Turrax® T10 Basic, IKA) for 3 minutes while 1.5 ml of a 0.5% aqueous methyl cellulose solution was added thereto. The sample thus prepared was administered through the oral gavage once daily for 6 weeks by using a disposable plastic syringe. The body weight was measured once a week while the DIO mouse was bred in this manner.
Based on the data thus measured, the anti-obesity effect was calculated according to the following Equation 1. Anti-obesity effect (%)={(Body weight after compound is administered)−(Body weight before compound is administered)}/(Body weight before compound is administered))×100 [Equation 1]
For the anti-obesity efficacy of the R-enantiomer (Compound 3a) and the S-enantiomer (Compound 3b) of the optically active pyranochromenylphenol compound prepared in Example 2, an experiment was performed in the same manner as in Experimental Example 1.
Based on the data thus measured, the anti-obesity effect was calculated according to Equation 1.

C57BLKS/J-db/db mice [2] = assay: Change in glycated hemoglobin of db/db mouse; settings: average; for Glycated hemoglobin (HbAlc, %), before administration: 300 mg/kg group, before administration (baseline); for Glycated hemoglobin (HbAlc, %), 29th day after administration / Glycated hemoglobin (HbAlc, %), 43rd day after administration: 300 mg/kg
Protocol: (§1) Specifically, 5-week-old male C57BLKS/J-db/db mice (Central Lab. Animal Inc., Korea) were purchased and acclimatized for 2 weeks, and then used in the present experiment. The R-enantiomer (Compound 3a) and the S-enantiomer (Compound 3b) prepared in Example 2 were weighed (CP423S, Sartorius, Germany) according to the administration dose and put into 50 ml tubes, an excipient (10% LM 2125 CS MCT solution) stored at room temperature was added thereto, and then the resulting mixture was stirred by means of a vortex mixer so as to dissolve the excipient. Thereafter, the solution was ultrasonically treated for about 10 minutes, and a stock solution was prepared by formulating the solution at a predetermined concentration. A 0.5% aqueous MC solution as an excipient was added to the prepared stock solution, the resulting mixture was gently stirred by means of a vortex mixer, homogenized and prepared by means of a homogenizer (PT-1600E, Kinematica, Switzerland) at 30,000 rpm for 3 minutes, and then a solution was prepared at a final predetermined concentration by performing ultrasonic wave treatment for 30 minutes. The sample thus prepared was administered through the oral gavage once daily for 6 weeks by using a disposable plastic syringe with a zonde for oral administration attached.
By using the same method as in Experimental Example 3, a racemic compound of Compound 1, Compound 1a being an R-enantiomer, a racemic compound of Compound 3 prepared in Example 2 and Compound 3a being an R-enantiomer were administered to the C57BLKS/J-db/db mice, and then the anti-diabetes effects were confirmed.
The following Table 5 is a result of measuring a change in glycated hemoglobin of the db/db mouse according to the administration of the normal group, the negative control the racemic compound of Compound 1, Compound 1a being the R-enantiomer, the racemic Compound of Compound 3 prepared in Example 2 and Compound 3a being the R-enantiomer.

C57BLKS/J-db/db mice [3] = assay: Glucose tolerance test in db/db mice; settings: db/db mouse; for Blood sugar (mg/dl), 15 min after administration of glucose / Blood sugar (mg/dl), 30 min after administration of glucose / Blood sugar (mg/dl), 60 min after administration of glucose / Blood sugar (mg/dl), 120 min after administration of glucose / Blood sugar (mg/dl), 180 min after administration of glucose / Blood sugar (mg/dl), 240 min after administration of glucose / Blood sugar (mg/dl), 0 min after administration of glucose / AUC of blood sugar: 48th day, average; for Blood sugar (mg/dl), 15 min after administration of glucose / Blood sugar (mg/dl), 30 min after administration of glucose / Blood sugar (mg/dl), 60 min after administration of glucose / Blood sugar (mg/dl), 120 min after administration of glucose / Blood sugar (mg/dl), 180 min after administration of glucose / Blood sugar (mg/dl), 240 min after administration of glucose / Blood sugar (mg/dl), 0 min after administration of glucose: glucose 2 g/kg oral; for Blood sugar (mg/dl), 0 min after administration of glucose: before glucose; for AUC of blood sugar: glucose tolerance test 0-240 min, Phoenix WinNonlin
Protocol: as §1
While the C57BLKS/J-db/db mouse was bred, the mouse was fasted for 14 to 16 hours on the 48th day after administration, and then a glucose tolerance test was performed by orally administering glucose (Lot No: SLBM9269V, Sigma-Aldrich. USA) at a dose of 2 g/kg to the mice. Specifically, blood was collected from the caudal vein seven times in total including before the administration of glucose, at 15 minutes after the administration of glucose, at 30 minutes after the administration of glucose, at 60 minutes after the administration of glucose, at 120 minutes after the administration of glucose, at 180 minutes after the administration of glucose, and at 240 minutes after the administration of glucose. Thereafter, blood sugar was measured by using two blood sugar meters (AGM-4000, Allmedicus Inc., Korea), and then an average blood sugar was calculated by using each blood sugar measurement value. The area under the blood concentration-time curve (AUC) for the blood sugar value at each measurement time point was calculated by using a Phoenix WinNonlin program.

[4] = 50 mg/kg oral gavage once daily for 6 weeks
[5] = 200 mg/kg oral gavage once daily for 6 weeks

Structure (SMILES) | Anti-obesity effect (%) [1, 4] | Glycated hemoglobin (HbAlc, %), before administration (C57BLKS/J-db/db mice [2]) | Glycated hemoglobin (HbAlc, %), 29th day after administration (C57BLKS/J-db/db mice [2]) | Glycated hemoglobin (HbAlc, %), 43rd day after administration (C57BLKS/J-db/db mice [2]) | Anti-obesity activity compared with other isomer/racemate [1] | Blood sugar (mg/dl), 15 min after administration of glucose (C57BLKS/J-db/db mice [3]; 100 mg/kg oral once daily) | Blood sugar (mg/dl), 30 min after administration of glucose (C57BLKS/J-db/db mice [3]; 100 mg/kg oral once daily) | Blood sugar (mg/dl), 60 min after administration of glucose (C57BLKS/J-db/db mice [3]; 100 mg/kg oral once daily) | Blood sugar (mg/dl), 120 min after administration of glucose (C57BLKS/J-db/db mice [3]; 100 mg/kg oral once daily) | Blood sugar (mg/dl), 180 min after administration of glucose (C57BLKS/J-db/db mice [3]; 100 mg/kg oral once daily) | Blood sugar (mg/dl), 240 min after administration of glucose (C57BLKS/J-db/db mice [3]; 100 mg/kg oral once daily) | Blood sugar (mg/dl), 0 min after administration of glucose (C57BLKS/J-db/db mice [3]; 100 mg/kg oral once daily) | AUC of blood sugar (C57BLKS/J-db/db mice [3]; 100 mg/kg oral once daily) | Anti-obesity effect (%) [1, 5] | also measured
CCOc1ccc(C2COc3c(ccc4c3CCC(C)(C)O4)C2)c(O)c1 (racemic) [Compound 2, 3-(2-hydroxy-4-ethoxyphenyl)-8,8-dimethyl-2,3,4,8,9,10-hexahydropyrano[2,3-f]chromene] | 2.29% | – | – | – | – | – | – | – | – | – | – | – | – | – | Anti-obesity effect (%) ([1]; 20 mg/kg oral gavage once daily for 6 weeks): 16.11%
CCCOc1ccc(C2COc3c(ccc4c3CCC(C)(C)O4)C2)c(O)c1 (racemic) [Compound 3, 3-(2-hydroxy-4-propoxyphenyl)-8,8-dimethyl-2,3,4,8,9,10-hexahydropyrano[2,3-f]chromene] | – | 4.7% | 6.7% | 6.2% | – | – | – | – | – | – | – | – | – | – | –
CCOc1ccc([C@@H]2COc3c(ccc4c3CCC(C)(C)O4)C2)c(O)c1 [Compound 2a, (R)-3-(2-hydroxy-4-ethoxyphenyl)-8,8-dimethyl-2,3,4,8,9,10-hexahydropyrano[2,3-f]chromene] | 7.58% | – | – | – | – | – | – | – | – | – | – | – | – | – | –
CCOc1ccc([C@H]2COc3c(ccc4c3CCC(C)(C)O4)C2)c(O)c1 [Compound 2b, (S)-3-(2-hydroxy-4-ethoxyphenyl)-8,8-dimethyl-2,3,4,8,9,10-hexahydropyrano[2,3-f]chromene] | −10.99% | – | – | – | better effect of suppressing an increase in body weight than the racemic compound and Compound 2a | – | – | – | – | – | – | – | – | – | –
CCCOc1ccc([C@@H]2COc3c(ccc4c3CCC(C)(C)O4)C2)c(O)c1 [Compound 3a, (R)-3-(2-hydroxy-4-propoxyphenyl)-8,8-dimethyl-2,3,4,8,9,10-hexahydropyrano[2,3-f]chromene] | – | 4.7% | 7.1% | 5.3% | – | 473 mg/dL | 527 mg/dL | 541 mg/dL | 200 mg/dL | 176 mg/dL | 184 mg/dL | 193 mg/dL | 526 mg/dL/min | −8.1% | Blood sugar (mg/dl), 15 min after administration of glucose (C57BLKS/J-db/db mice [3]; 150 mg/kg oral once daily): 440 mg/dL; Blood sugar (mg/dl), 30 min after administration of glucose (C57BLKS/J-db/db mice [3]; 150 mg/kg oral once daily): 469 mg/dL; Blood sugar (mg/dl), 60 min after administration of glucose (C57BLKS/J-db/db mice [3]; 150 mg/kg oral once daily): 460 mg/dL; Blood sugar (mg/dl), 120 min after administration of glucose (C57BLKS/J-db/db mice [3]; 150 mg/kg oral once daily): 234 mg/dL; Blood sugar (mg/dl), 180 min after administration of glucose (C57BLKS/J-db/db mice [3]; 150 mg/kg oral once daily): 153 mg/dL; Blood sugar (mg/dl), 240 min after administration of glucose (C57BLKS/J-db/db mice [3]; 150 mg/kg oral once daily): 163 mg/dL; Blood sugar (mg/dl), 0 min after administration of glucose (C57BLKS/J-db/db mice [3]; 150 mg/kg oral once daily): 175 mg/dL; AUC of blood sugar (C57BLKS/J-db/db mice [3]; 150 mg/kg oral once daily): 481 mg/dL/min; Blood sugar (mg/dl), 15 min after administration of glucose (C57BLKS/J-db/db mice [3]; 200 mg/kg oral once daily): 488 mg/dL; Blood sugar (mg/dl), 30 min after administration of glucose (C57BLKS/J-db/db mice [3]; 200 mg/kg oral once daily): 507 mg/dL; Blood sugar (mg/dl), 60 min after administration of glucose (C57BLKS/J-db/db mice [3]; 200 mg/kg oral once daily): 437 mg/dL; Blood sugar (mg/dl), 120 min after administration of glucose (C57BLKS/J-db/db mice [3]; 200 mg/kg oral once daily): 223 mg/dL; Blood sugar (mg/dl), 180 min after administration of glucose (C57BLKS/J-db/db mice [3]; 200 mg/kg oral once daily): 183 mg/dL; Blood sugar (mg/dl), 240 min after administration of glucose (C57BLKS/J-db/db mice [3]; 200 mg/kg oral once daily): 174 mg/dL; Blood sugar (mg/dl), 0 min after administration of glucose (C57BLKS/J-db/db mice [3]; 200 mg/kg oral once daily): 159 mg/dL; AUC of blood sugar (C57BLKS/J-db/db mice [3]; 200 mg/kg oral once daily): 501 mg/dL/min; Adjustment of blood sugar in glucose tolerance test, compared with other enantiomer (C57BLKS/J-db/db mice [3]; result in words): adjusted blood sugar well as compared to the S-enantiomer (Compound 3b)
CCCOc1ccc([C@H]2COc3c(ccc4c3CCC(C)(C)O4)C2)c(O)c1 [Compound 3b, (S)-3-(2-hydroxy-4-propoxyphenyl)-8,8-dimethyl-2,3,4,8,9,10-hexahydropyrano[2,3-f]chromene] | – | – | – | – | better anti-obesity activity than Compound 3a | 595 mg/dL | 616 mg/dL | 628 mg/dL | 472 mg/dL | 422 mg/dL | 397 mg/dL | 392 mg/dL | 782 mg/dL/min | −19.5% | Body weight of the mouse after administration for 6 weeks ([1]; 6 weeks, FIG. 4, result in words): close to the body weight of the normal mouse
